{"source": "patent US12256764B2", "about": "(priority 2017, dated 2025)", "test_system": "rats", "test": "Acute oral toxicity (LD50) in rats", "details": "conversion of the MSDS LD50", "data": [{"smiles": "OCC(O)CO", "note": "[Vegetable glycerin, glycerol]", "values": [{"measurement": "LD50 oral rat dosage expressed for a 180 pound male", "value": 36, "unit": "ounces"}]}]}
